Consider five compounds from ChEMBL document CHEMBL4038320 (J Med Chem, 2017).

The target of data set [1] is Rho-associated protein kinase 2 (Homo sapiens, UniProt O75116). Briefly: Inhibition of recombinant human N-terminal GST-tagged ROCK2 catalytic domain (1 to 553 residues) expressed in baculovirus expression system using STK 2-biotin as substrate measured after 60 mins by HTRF/TR-FRET assay. A general note: In TR-FRET formats the signal depends on donor and acceptor labels being close together.
Sequence of Rho-associated protein kinase 2 (O75116 whole entry, the tested form may be a part): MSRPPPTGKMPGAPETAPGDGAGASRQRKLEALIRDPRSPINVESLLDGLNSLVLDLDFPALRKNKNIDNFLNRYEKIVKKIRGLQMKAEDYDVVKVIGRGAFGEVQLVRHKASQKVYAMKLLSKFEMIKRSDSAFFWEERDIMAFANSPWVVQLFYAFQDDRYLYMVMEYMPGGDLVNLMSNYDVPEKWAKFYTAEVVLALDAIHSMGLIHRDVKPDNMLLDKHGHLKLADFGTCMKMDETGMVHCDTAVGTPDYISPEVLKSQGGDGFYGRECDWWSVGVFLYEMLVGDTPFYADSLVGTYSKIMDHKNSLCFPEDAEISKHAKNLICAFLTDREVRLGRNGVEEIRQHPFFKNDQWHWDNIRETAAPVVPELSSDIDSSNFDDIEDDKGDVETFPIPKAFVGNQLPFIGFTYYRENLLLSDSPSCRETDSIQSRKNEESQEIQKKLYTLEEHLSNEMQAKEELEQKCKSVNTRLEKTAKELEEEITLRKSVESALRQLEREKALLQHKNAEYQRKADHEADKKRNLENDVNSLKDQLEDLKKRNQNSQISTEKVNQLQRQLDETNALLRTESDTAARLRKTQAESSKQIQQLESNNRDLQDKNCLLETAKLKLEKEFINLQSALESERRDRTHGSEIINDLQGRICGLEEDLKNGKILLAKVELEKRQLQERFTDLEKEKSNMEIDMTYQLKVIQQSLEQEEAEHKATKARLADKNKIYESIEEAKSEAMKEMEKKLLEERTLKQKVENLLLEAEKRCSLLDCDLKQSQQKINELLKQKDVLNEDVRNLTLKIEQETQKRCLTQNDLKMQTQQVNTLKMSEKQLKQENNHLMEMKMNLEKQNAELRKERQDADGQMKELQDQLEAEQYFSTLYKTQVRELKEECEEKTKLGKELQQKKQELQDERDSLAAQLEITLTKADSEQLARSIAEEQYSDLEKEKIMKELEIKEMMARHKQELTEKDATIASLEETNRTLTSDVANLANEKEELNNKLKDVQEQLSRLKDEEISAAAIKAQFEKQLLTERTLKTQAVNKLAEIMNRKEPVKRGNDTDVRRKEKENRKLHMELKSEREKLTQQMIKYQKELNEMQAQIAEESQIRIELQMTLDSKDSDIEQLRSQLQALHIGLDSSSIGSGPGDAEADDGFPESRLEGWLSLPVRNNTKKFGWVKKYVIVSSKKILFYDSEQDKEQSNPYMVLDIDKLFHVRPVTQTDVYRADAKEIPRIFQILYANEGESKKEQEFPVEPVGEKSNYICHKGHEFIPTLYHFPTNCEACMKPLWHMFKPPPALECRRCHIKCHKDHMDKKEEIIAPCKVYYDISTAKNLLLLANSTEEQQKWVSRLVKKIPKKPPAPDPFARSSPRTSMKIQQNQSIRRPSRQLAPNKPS

For data set [2], the target named is Protein kinase C alpha type (Homo sapiens, UniProt P17252). Briefly: Inhibition of human PKCalpha active using MBP as substrate after 60 mins in presence of [gamma-32]ATP by scintillation counting.
Data set [3] deals with CYP3A4 (Homo sapiens, UniProt P08684). Briefly: Inhibition of CYP3A4 (unknown origin) at 10 uM. The format is ADME.
Sequence of CYP3A4 (P08684 whole entry): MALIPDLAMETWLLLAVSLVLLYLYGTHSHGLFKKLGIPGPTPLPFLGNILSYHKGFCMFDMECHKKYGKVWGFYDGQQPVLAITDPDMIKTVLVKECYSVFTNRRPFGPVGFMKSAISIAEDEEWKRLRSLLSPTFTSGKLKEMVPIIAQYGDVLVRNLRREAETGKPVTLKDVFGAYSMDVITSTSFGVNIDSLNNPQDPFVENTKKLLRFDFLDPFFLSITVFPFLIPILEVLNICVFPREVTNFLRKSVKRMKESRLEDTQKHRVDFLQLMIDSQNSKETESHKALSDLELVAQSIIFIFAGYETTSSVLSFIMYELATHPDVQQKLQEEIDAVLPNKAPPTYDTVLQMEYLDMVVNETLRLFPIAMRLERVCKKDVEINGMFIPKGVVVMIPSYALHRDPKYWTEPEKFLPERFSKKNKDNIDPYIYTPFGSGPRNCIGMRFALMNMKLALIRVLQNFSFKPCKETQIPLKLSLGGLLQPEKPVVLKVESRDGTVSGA
Data set [4] deals with T1, Rhodopsin kinase GRK1 (Homo sapiens, UniProt Q15835).
T1 sequence (Q15835 whole entry): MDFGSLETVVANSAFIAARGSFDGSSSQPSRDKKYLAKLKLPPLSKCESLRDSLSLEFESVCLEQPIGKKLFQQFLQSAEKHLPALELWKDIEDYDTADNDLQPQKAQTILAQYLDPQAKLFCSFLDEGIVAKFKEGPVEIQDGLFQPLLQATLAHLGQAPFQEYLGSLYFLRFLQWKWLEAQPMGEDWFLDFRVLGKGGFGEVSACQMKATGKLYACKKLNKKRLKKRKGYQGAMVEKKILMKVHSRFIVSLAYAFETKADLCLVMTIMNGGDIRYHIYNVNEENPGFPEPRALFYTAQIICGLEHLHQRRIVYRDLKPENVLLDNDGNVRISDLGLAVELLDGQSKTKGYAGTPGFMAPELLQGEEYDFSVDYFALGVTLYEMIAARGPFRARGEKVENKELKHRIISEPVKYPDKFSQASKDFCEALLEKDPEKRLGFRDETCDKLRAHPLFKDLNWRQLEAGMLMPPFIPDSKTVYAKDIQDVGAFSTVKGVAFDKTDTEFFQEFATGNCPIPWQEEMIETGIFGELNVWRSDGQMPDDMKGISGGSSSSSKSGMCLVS
The data set is described as follows: Inhibition of recombinant human GST-tagged GRK1 expressed in baculovirus infected fall armyworm Sf9 cells after 60 mins by LanthaScreen eu kinase binding assay.

For data set [5], the target named is T2, G protein-coupled receptor kinase 3 (Homo sapiens, UniProt P35626).
T2 sequence (P35626 whole entry): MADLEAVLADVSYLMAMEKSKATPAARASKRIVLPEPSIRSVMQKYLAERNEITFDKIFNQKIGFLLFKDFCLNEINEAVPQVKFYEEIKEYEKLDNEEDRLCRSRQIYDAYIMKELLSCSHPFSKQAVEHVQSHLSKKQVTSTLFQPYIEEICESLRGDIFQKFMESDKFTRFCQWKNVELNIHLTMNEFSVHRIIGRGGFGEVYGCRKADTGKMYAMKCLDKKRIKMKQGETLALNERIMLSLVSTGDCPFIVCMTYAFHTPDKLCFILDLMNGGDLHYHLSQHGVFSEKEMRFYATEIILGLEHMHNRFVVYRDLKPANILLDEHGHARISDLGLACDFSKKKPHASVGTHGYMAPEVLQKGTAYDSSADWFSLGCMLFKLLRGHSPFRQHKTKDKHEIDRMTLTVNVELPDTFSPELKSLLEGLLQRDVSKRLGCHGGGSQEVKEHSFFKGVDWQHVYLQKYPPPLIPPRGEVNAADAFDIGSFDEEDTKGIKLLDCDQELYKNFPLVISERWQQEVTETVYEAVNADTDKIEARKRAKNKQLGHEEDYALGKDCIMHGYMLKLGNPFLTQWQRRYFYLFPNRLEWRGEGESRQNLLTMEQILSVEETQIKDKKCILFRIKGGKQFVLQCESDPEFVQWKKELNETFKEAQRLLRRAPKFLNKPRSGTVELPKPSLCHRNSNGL
The data set is described as follows: Inhibition of recombinant human full length GST-tagged GRK3 expressed in baculovirus using ulight topo2alpha as substrate preincubated for 60 mins followed by substrate addition measured after 10 mins by Lance TR-FRET assay.

In data set [6] the target is T3, Rhodopsin kinase GRK7 (Homo sapiens, UniProt Q8WTQ7).
T3 sequence (Q8WTQ7 whole entry): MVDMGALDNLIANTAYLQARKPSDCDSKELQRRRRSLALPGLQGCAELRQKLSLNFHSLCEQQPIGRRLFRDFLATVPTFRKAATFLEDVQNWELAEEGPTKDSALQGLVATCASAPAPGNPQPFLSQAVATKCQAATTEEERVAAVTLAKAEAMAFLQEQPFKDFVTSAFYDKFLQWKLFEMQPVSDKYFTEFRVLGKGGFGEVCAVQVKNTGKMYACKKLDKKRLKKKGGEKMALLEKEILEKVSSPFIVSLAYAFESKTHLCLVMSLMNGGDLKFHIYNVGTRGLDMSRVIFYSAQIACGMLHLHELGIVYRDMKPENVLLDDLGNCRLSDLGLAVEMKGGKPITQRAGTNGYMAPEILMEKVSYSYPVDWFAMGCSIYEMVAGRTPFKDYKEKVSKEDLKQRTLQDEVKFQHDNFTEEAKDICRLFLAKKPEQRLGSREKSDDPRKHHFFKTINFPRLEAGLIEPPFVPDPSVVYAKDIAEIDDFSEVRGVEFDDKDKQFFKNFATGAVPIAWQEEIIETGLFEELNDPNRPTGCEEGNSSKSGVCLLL
Briefly: Inhibition of recombinant human full length GST-tagged GRK7 expressed in baculovirus using ulight topo2alpha as substrate preincubated for 60 mins followed by substrate addition measured after 10 mins by Lance TR-FRET assay.

In data set [7] the target is G protein-coupled receptor kinase 6 (Homo sapiens, UniProt P43250). Briefly: Inhibition of recombinant human full length GST-tagged GRK6 expressed in baculovirus using ulight topo2alpha as substrate preincubated for 60 mins followed by substrate addition measured after 10 mins by Lance TR-FRET assay.
Sequence of G protein-coupled receptor kinase 6 (P43250 whole entry): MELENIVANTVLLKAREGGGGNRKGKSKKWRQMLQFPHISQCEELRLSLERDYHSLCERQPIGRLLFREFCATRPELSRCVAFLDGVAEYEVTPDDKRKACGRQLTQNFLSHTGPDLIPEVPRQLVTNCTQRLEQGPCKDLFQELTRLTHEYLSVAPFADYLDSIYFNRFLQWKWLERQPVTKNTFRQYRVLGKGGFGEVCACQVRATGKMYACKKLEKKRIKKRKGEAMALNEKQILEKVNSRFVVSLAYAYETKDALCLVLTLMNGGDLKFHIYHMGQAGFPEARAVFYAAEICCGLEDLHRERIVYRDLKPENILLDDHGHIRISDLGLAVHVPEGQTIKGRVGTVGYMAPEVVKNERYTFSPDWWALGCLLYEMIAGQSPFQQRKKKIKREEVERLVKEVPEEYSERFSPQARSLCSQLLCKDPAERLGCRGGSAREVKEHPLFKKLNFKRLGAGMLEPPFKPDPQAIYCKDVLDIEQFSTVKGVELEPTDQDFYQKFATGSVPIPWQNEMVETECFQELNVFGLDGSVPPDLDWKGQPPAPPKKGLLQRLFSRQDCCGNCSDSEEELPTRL
Data set [8] in a line: Inhibition of recombinant human PKA expressed in Escherichia coli using LRRASLG as substrate preincubated for 15 mins followed by substrate addition measured after 15 mins in presence of [gamma-33P]-ATP by scintillation counting.
Data set [9] concerns the target T4, hERG (KCNH2) (Homo sapiens, UniProt Q12809). The data set is described as follows: Displacement of [3H]Astemizole from human ERG expressed in HEK293 cell membranes at 1 uM after 60 mins. The note with it: membranes of HEK293 cells that express hERG, probe [3H]Astemizole. A general note: Loss of bound radioactivity is the signal in a displacement assay; it reports binding, not function.

For data set [10], the target named is T4, hERG (KCNH2). Briefly: Displacement of [3H]Astemizole from human ERG expressed in HEK293 cell membranes at 10 uM after 60 mins. The note with it: membranes of HEK293 cells that express hERG, probe [3H]Astemizole.
Data set [11] deals with G protein-coupled receptor kinase 5 (Homo sapiens, UniProt P34947).
Sequence of G protein-coupled receptor kinase 5 (P34947 whole entry): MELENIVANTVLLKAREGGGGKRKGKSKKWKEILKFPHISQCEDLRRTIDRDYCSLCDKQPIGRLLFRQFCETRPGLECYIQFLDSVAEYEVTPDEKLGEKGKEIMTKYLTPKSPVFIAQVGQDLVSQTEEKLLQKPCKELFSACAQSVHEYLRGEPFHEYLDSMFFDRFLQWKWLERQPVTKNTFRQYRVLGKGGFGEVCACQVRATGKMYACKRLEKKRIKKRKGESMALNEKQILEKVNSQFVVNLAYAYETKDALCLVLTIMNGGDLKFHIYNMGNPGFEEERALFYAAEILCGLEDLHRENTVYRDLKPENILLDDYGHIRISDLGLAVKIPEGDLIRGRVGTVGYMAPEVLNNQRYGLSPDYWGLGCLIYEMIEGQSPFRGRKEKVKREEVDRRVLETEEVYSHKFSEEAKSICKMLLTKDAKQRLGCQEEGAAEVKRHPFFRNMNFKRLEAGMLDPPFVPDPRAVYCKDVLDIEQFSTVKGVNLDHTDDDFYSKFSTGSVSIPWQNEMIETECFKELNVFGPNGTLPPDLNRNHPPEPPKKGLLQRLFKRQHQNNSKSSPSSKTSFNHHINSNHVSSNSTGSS
Description: Inhibition of recombinant human full length GST-tagged GRK5 expressed in baculovirus using ulight topo2alpha as substrate preincubated for 60 mins followed by substrate addition measured after 10 mins by Lance TR-FRET assay
For data set [12], the target named is T5, Beta-adrenergic receptor kinase 1 (Homo sapiens, UniProt P25098).
T5 sequence (P25098 whole entry): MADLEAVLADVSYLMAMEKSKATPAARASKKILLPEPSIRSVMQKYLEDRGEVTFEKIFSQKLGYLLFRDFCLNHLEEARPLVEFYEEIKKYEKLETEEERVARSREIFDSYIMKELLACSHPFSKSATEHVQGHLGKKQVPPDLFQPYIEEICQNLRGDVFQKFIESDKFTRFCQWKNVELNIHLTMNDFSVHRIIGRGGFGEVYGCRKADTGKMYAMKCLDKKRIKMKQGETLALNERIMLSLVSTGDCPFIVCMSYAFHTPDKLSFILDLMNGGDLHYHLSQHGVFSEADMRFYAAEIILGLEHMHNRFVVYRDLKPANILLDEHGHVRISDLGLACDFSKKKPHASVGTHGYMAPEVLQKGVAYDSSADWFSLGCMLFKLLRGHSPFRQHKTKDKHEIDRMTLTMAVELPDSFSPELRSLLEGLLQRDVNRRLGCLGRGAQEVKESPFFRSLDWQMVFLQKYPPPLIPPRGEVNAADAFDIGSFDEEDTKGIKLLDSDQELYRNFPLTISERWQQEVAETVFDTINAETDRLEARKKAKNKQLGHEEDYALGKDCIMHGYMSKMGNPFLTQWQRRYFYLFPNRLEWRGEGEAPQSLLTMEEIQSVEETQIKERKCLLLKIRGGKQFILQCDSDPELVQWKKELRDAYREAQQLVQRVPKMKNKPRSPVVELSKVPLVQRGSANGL
The data set is described as follows: Inhibition of human GRK2 expressed in HEK-B2 cells assessed as isoproterenol-stimulated cAMP accumulation preincubation for 20 mins followed by isoproterenol stimulation measured after 20 mins by cAMP ALPHA-screen assay. In kind it is cell-based. (In general: cAMP levels reflect the balance of adenylyl cyclase and phosphodiesterase activity.)

T4 sequence (Q12809 whole entry): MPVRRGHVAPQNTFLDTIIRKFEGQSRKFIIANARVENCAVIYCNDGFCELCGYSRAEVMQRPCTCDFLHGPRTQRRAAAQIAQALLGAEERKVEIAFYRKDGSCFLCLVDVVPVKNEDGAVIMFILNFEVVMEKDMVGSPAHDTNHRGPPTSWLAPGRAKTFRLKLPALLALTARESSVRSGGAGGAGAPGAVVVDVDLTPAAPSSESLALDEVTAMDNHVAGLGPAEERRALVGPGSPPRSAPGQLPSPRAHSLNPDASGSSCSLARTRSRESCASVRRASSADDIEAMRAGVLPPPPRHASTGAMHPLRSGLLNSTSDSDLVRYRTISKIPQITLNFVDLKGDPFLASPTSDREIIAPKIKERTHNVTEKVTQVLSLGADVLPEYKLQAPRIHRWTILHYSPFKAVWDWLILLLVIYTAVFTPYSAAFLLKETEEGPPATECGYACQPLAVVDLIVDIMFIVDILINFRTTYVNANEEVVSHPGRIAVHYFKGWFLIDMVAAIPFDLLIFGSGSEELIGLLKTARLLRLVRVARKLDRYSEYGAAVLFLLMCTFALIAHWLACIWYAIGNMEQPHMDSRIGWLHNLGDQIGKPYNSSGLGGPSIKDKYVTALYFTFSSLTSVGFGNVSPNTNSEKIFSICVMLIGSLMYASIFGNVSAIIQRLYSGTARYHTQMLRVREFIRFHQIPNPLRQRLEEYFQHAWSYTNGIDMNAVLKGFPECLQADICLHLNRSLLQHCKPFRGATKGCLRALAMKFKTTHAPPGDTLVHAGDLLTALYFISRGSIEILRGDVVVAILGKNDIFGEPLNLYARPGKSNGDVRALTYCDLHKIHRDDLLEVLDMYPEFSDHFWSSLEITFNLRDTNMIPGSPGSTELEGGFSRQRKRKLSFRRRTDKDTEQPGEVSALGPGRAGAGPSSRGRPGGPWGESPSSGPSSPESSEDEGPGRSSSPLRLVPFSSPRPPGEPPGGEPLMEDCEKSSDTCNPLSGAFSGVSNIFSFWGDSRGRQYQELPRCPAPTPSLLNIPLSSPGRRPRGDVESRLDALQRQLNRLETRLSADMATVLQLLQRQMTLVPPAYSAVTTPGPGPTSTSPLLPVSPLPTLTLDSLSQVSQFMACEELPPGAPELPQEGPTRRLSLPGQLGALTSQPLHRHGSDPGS

Regarding `Cn1c(CNc2cccc(C(=O)NCc3ccccc3C(F)(F)F)c2)nnc1-c1ccncc1`, the IC50 (commonly the concentration at which inhibition is half-maximal) in data set [1] is 1400 nM; in [2] it was 8.1 µM; in [4], 3.1 µM; in data set [5], 5.4 nM; in data set [6], 25 µM; in data set [7] it was greater than 30 µM. In addition, the IC50 in data set [8] is greater than 1000 nM; in [11], 2300 nM. The inhibition (as a rule, the change of the read-out against control, counted positive when it falls) at 10 µM in [3] was found to be 44%. In data set [9], this compound yielded an inhibition at 1 h, 1 µM of 9%. In data set [10], the inhibition at 1 h, 10 µM was found to be 31%.

For the compound `Cn1c(CNc2cccc(C(=O)NCc3ccc(C(F)(F)F)cc3)c2)nnc1-c1ccncc1`, the IC50 in data set [1] is 620 nM; in [2], greater than 10 µM. This compound also displayed an inhibition at 10 µM in data set [3] of 36%. In addition, the EC50 (as a rule, the concentration giving half of the maximal effect) in [12] stood at 930 µM.

As to `CCCn1c(CNc2cccc(C(=O)NCc3ccccc3)c2)nnc1-c1ccncc1`, the IC50 in data set [1] was 110 nM; in data set [2], 5.7 µM. Further, in data set [3], the inhibition at 10 µM stood at 67%. The EC50 in data set [12] was 26 µM.

With `Cn1c(CNc2cccc(C(=O)NCc3ccccc3)c2)nnc1-c1ccncc1`, the IC50 in data set [1] was 550 nM; in data set [2] it was greater than 10 µM. In addition, in [3], the inhibition at 10 µM turned out to be 26%. The EC50 in data set [12] is 1900 µM.

In the case of `Cn1c(CNc2cccc(C(=O)NCc3cccc(C(F)(F)F)c3)c2)nnc1-c1ccncc1`, the IC50 in data set [1] is 530 nM; in data set [2], greater than 10 µM. At 10 µM the inhibition in data set [3] was 44%. For the same compound, in data set [12], the 50% effective concentration (EC50) came to 220 µM.
